The values that follow come from the supplement of paper PMC11208160.

This series in a line: recombinant barcode read abundance after kanamycin selection (control-corrected) (log10(CPM+1)); higher = more efficient recombination; sequences stand for … in AGTGCAGAGAAAATCGGCCAGTTTTCTCTGCCTGCAGTCCGCATGCCGT…ATTTATGCAGCGGACTGCCTTTCTCCCAAAGTGATAAACCGGACAGTATCATGGACCGGTTTTCCCGGTAATCCGTATTTGCAAGGTTGGTTTCACT; site = the 11-nt target. The procedure: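 Same pooled E. coli target screen (IS621 bridge recombinase, kanamycin selection, control-corrected CPM, mean of 2 biological replicates). Here the two core-binding nucleotides of the LTG and RTG of the bridge RNA target-binding loop are mutated. Target and donor CT cores are held constant, and the other 9 guide positions match the target. The target is read from the library oligo sequence. Molecule = full bridge RNA written as DNA: nt 1-80 from the library oligo, rest WT scaffold.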
For “AGTCTTACTTGGGTTCTAACCTGTTGCCATT [AGTCTTACTTG_LTGcore_CT_RTGcore_AA] (site AGTCTTACTTG) (LTG core: CT, RTG core: AA)”, the “recombinant barcode read abundance (log10)” value was 0.196.

For “AGTCTTAGCTGGGTTCTAACCTGTTGCCAGC [AGTCTTACTTG_LTGcore_GC_RTGcore_GC] (site AGTCTTACTTG) (LTG core: GC, RTG core: GC)”, the “recombinant barcode read abundance (log10)” value is 0.197.

As to “AGTCTTAGGTGGGTTCTAACCTGTTGCCACC [AGTCTTACTTG_LTGcore_GG_RTGcore_GG] (site AGTCTTACTTG) (LTG core: GG, RTG core: GG)”, the “recombinant barcode read abundance (log10)” value is 0.274.

For “AGTCTTATATGGGTTCTAACCTGTTGCCATA [AGTCTTACTTG_LTGcore_TA_RTGcore_TA] (site AGTCTTACTTG) (LTG core: TA, RTG core: TA)”, the “recombinant barcode read abundance (log10)” value is 0.153.

Regarding “AGTCTTATTTGGGTTCTAACCTGTTGCCAAG [AGTCTTACTTG_LTGcore_TT_RTGcore_CT] (site AGTCTTACTTG) (LTG core: TT, RTG core: CT)”, the “recombinant barcode read abundance (log10)” value is 0.137.

Regarding “ATGCTTTAGTGGGTTCTAACCTGTTGCCTAG [ATGCTTTCTAG_LTGcore_AG_RTGcore_CT] (site ATGCTTTCTAG) (LTG core: AG, RTG core: CT)”, the “recombinant barcode read abundance (log10)” value was 0.0782.

Regarding “ATGCTTTCCTGGGTTCTAACCTGTTGCCTAG [ATGCTTTCTAG_LTGcore_CC_RTGcore_CT] (site ATGCTTTCTAG) (LTG core: CC, RTG core: CT)”, the “recombinant barcode read abundance (log10)” value turned out to be 0.0734.

In the case of “ATGCTTTCCTGGGTTCTAACCTGTTGCCTGG [ATGCTTTCTAG_LTGcore_CC_RTGcore_CC] (site ATGCTTTCTAG) (LTG core: CC, RTG core: CC)”, the “recombinant barcode read abundance (log10)” value was 0.0978.

For the sequence “ATGCTTTCGTGGGTTCTAACCTGTTGCCTAG [ATGCTTTCTAG_LTGcore_CG_RTGcore_CT] (site ATGCTTTCTAG) (LTG core: CG, RTG core: CT)”, the “recombinant barcode read abundance (log10)” value amounted to 0.0216.

For “ATGCTTTCTTGGGTTCTAACCTGTTGCCTAC [ATGCTTTCTAG_LTGcore_CT_RTGcore_GT] (site ATGCTTTCTAG) (LTG core: CT, RTG core: GT)”, the “recombinant barcode read abundance (log10)” value worked out at 0.191.

Take “ATGCTTTCTTGGGTTCTAACCTGTTGCCTTG [ATGCTTTCTAG_LTGcore_CT_RTGcore_CA] (site ATGCTTTCTAG) (LTG core: CT, RTG core: CA)”: the “recombinant barcode read abundance (log10)” value is 0.0598.

In the case of “ATGCTTTGATGGGTTCTAACCTGTTGCCTAG [ATGCTTTCTAG_LTGcore_GA_RTGcore_CT] (site ATGCTTTCTAG) (LTG core: GA, RTG core: CT)”, the “recombinant barcode read abundance (log10)” value is 0.229.

On to “ATGCTTTGATGGGTTCTAACCTGTTGCCTTC [ATGCTTTCTAG_LTGcore_GA_RTGcore_GA] (site ATGCTTTCTAG) (LTG core: GA, RTG core: GA)”, for which the “recombinant barcode read abundance (log10)” value worked out at 0.0368.

With “ATGCTTTGCTGGGTTCTAACCTGTTGCCTGC [ATGCTTTCTAG_LTGcore_GC_RTGcore_GC] (site ATGCTTTCTAG) (LTG core: GC, RTG core: GC)”, the “recombinant barcode read abundance (log10)” value was 0.0848.

On to “ATGCTTTTATGGGTTCTAACCTGTTGCCTAG [ATGCTTTCTAG_LTGcore_TA_RTGcore_CT] (site ATGCTTTCTAG) (LTG core: TA, RTG core: CT)”, for which the “recombinant barcode read abundance (log10)” value amounted to 0.238.

For “ATGCTTTTATGGGTTCTAACCTGTTGCCTTA [ATGCTTTCTAG_LTGcore_TA_RTGcore_TA] (site ATGCTTTCTAG) (LTG core: TA, RTG core: TA)”, the “recombinant barcode read abundance (log10)” value came to 0.232.

Turning to “ATGCTTTTGTGGGTTCTAACCTGTTGCCTAG [ATGCTTTCTAG_LTGcore_TG_RTGcore_CT] (site ATGCTTTCTAG) (LTG core: TG, RTG core: CT)”, the “recombinant barcode read abundance (log10)” value amounted to 0.0287.

Regarding “ATGCTTTTTTGGGTTCTAACCTGTTGCCTAA [ATGCTTTCTAG_LTGcore_TT_RTGcore_TT] (site ATGCTTTCTAG) (LTG core: TT, RTG core: TT)”, the “recombinant barcode read abundance (log10)” value came out at 0.0151.
